This passage reports Ki results from patent publication US20080161309A1, “Novel Compounds” (priority 2004, published 2008).

Structures are written as SMILES. Counter-ions that a name gives are not always drawn.

The target of test [1] is T1, human serotonin transporter (hSERT) (Homo sapiens, UniProt P31645).
T1 construct: expressed in transfected cells; host or cells: HEK-293, membranes
As to the kind of experiment: hSERT receptor binding, [125I]-RTI-55, HEK-293 membranes. The following applies: [125I]-RTI-55, HEK-293 membranes, Cheng-Prusoff; read-out: SERT Ki. As for the experimental part:
Cell pastes of HEK-293 cells transfected with a human serotonin transporter cDNA were prepared. […] Aliquots of membranes (−2.5 mg/ml protein) were stored in liquid nitrogen until used.
The reaction was incubated and gently agitated for 90 minutes at room temperature, and terminated by removal of assay volume. […] Test compounds were run in duplicate, and specific binding was defined as the difference between binding in the presence and absence of 10 μM citalopram. Excel and GraphPad Prism software were used for data calculation and analysis. IC50 values were converted to Ki values using the Cheng-Prusoff equation.

Test [2] concerns the target T2, human norepinephrine transporter (hNET) (Homo sapiens, UniProt P23975).
T2 construct: expressed in transfected cells; host or cells: HEK-293, membranes
As to the kind of experiment: hNET receptor binding, [125I]-RTI-55, HEK-293 membranes. The following applies: Cheng-Prusoff, read-out: NET Ki. As for the experimental part:
Cell pastes of HEK-293 cells transfected with a human norepinephrine transporter cDNA were prepared. The cell pastes were resuspended in 400 to 700 ml of Krebs-HEPES assay buffer (25 mM HEPES, 122 mM NaCl, 3 mM KCl, 1.2 mM MgSO4, 1.3 mM CaCl2, and 11 mM glucose, pH 7.4) with a Polytron homogenizer at setting 7 for 30 seconds. Aliquots of membranes (5 mg/ml protein) were stored in liquid nitrogen until used.
The binding assay was set up in Beckman deep-well polypropylene plates with a total volume of 250 μl containing: drug (10^−5M to 10^−12M), cell membranes, and […] [^125I]-RTI-55 (Perkin Elmer, NEX-272; specific activity 2200 Ci/mmol). The reaction was incubated by gentle agitation for 90 minutes at room temperature and was terminated by filtration through Whatman GF/C filter plates using a Brandel 96-well plate harvester. Scintillation fluid (100 μl) was added to each well, and bound [^125I]-RTI-55 was determined using a Wallac Trilux Beta Plate Counter. Test compounds were run in duplicate, and specific binding was defined as the difference between binding in the presence and absence of 10 μM desipramine.
Excel and GraphPad Prism software were used for data calculation and analysis. IC50 values were converted to Ki values using the Cheng-Prusoff equation. The Ki values (nM) for the hNET are reported below in Table 1.

T1 sequence (P31645 whole entry): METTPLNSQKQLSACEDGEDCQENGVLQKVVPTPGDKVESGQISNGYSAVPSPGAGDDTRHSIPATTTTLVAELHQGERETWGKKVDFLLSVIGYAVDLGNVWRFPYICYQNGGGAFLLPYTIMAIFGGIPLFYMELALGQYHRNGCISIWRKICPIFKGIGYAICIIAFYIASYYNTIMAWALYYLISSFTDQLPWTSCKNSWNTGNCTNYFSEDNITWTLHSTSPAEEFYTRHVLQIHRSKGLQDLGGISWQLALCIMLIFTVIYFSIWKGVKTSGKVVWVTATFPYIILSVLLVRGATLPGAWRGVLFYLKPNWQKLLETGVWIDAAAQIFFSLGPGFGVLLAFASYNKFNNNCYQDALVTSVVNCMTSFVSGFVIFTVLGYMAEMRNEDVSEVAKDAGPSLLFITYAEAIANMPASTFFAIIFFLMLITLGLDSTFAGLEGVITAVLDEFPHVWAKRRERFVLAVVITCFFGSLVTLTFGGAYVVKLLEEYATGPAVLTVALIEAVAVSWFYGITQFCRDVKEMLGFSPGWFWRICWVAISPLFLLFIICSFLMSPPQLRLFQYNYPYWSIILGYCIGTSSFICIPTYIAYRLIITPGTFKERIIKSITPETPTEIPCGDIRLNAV
T2 sequence (P23975 whole entry): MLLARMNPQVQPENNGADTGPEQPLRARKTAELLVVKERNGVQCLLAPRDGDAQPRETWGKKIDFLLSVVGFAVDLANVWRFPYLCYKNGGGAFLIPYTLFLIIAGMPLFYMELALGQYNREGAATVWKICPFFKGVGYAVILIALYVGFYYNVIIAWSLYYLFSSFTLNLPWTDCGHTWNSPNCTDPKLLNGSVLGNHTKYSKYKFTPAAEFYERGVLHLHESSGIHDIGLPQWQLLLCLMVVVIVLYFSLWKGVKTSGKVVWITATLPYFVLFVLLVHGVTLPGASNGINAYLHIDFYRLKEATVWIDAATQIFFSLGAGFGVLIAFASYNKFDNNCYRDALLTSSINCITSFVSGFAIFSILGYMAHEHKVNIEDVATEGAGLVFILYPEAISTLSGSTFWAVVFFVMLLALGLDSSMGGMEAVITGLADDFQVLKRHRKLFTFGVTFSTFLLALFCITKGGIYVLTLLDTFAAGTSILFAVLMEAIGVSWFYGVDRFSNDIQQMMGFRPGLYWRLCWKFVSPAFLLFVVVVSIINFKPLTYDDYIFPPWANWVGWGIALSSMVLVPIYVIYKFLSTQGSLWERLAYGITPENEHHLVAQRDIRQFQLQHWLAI

Regarding `Fc1cccc([C@H](Oc2cccc(F)c2F)[C@@H]2CNCCO2)c1` [Example 39, (2S)-2-[(1S)-(2,3-Difluorophenoxy)(3-fluorophenyl)methyl] morpholine hydrochloride], the values for the Ki in test [1] and in test [2] were 142 nM and 3.77 nM, respectively.

Consider `COc1cc(C)ccc1O[C@@H](c1ccccc1)[C@@H]1CNCCO1` [Example 40, (2S)-2-[(1S)-(2-Methoxy-4-methylphenoxy)phenylmethyl] morpholine hydrochloride], for which the inhibition constant Ki (in general, the equilibrium dissociation constant of an inhibitor or competing ligand from its target) in test [1] came to 158 nM; in test [2] it was 4.3 nM.

For `COc1cc(C)ccc1O[C@@H](c1ccc(F)cc1)[C@@H]1CNCCO1` [Example 42, (2S)-2-[(1S)-(2-methoxy-4-methylphenoxy)4-fluorophenyl) methyl] morpholine hydrochloride], the Ki is 69.2 nM in test [1] and 11.4 nM in test [2].

Consider `COc1cc(C)ccc1O[C@H](c1ccc(F)cc1)[C@H]1CNCCO1` [Example 43, (2R)-2-[(1R)-(2-Methoxy-4-methylphenoxy)4-Fluorophenyl) methyl] morpholine hydrochloride], for which the Ki in test [1] came to 4.7 nM; in test [2], 1700 nM.

For `Fc1cccc([C@H](Oc2ccc(Cl)cc2F)[C@@H]2CNCCO2)c1` [Example 44, (2S)-2-[(1S)-(4-Chloro-2-fluorophenoxy)(3-fluorophenyl)methyl] morpholine hydrochloride], the Ki was 74.8 nM in test [1] and 33.3 nM in test [2].

Turning to `Fc1cccc([C@H](Oc2c(F)cccc2F)[C@@H]2CNCCO2)c1` [Example 47, (2S)-2-[(1S)-(2,6-Difluorophenoxy)-(3-fluorophenyl)methyl] morpholine hydrochloride], the Ki stood at 967 nM in test [1] and 6.9 nM in test [2].

Turning to `Cc1ccccc1O[C@@H](c1cccc(F)c1)[C@@H]1CNCCO1` [Example 49, (2S)-2-[(1S)-(3-Fluorophenyl)-o-tolyloxy-methyl] morpholine hydrochloride], the inhibition constant (Ki) was 194 nM in test [1] and 6.8 nM in test [2].

Take `COc1cccc(F)c1O[C@@H](c1cccc(F)c1)[C@@H]1CNCCO1` [Example 50, (2S)-2-[(1S)-(2-Fluoro-6-methoxyphenoxy)(3-fluorophenyl)methyl] morpholine hydrochloride]: the figures for the Ki in test [1] and in test [2] were 1070 nM and 8 nM, respectively.

For the compound `COc1ccc(C)cc1O[C@@H](c1cccc(F)c1)[C@@H]1CNCCO1` [Example 51, (2S)-2-[(1S)-(3-Fluorophenyl)-(2-methoxy-5-methylphenoxy)methyl] morpholine hydrochloride], the inhibition constant (Ki) in test [1] was found to be 1040 nM; in test [2], 26.6 nM.

As for `Fc1ccc(Cl)c(O[C@@H](c2cccc(Cl)c2)[C@@H]2CNCCO2)c1` [Example 53, (2S)-2-[(1S)-(2-Chloro-5-fluorophenoxy) (3-chlorophenyl)methyl] morpholine hydrochloride], the Ki in test [1] was found to be 344 nM; in test [2], 26.6 nM.

Regarding `COc1cc(Cl)ccc1O[C@@H](c1cccc(C)c1)[C@@H]1CNCCO1` [Example 54, (2S)-2-[(1S)-(4-Chloro-2-methoxyphenoxy)-m-tolyl-methyl] morpholine hydrochloride], the figures for the Ki in test [1] and in test [2] were 41.7 nM and 23.7 nM, respectively.

Take `COc1cc(C)ccc1O[C@@H](c1cccc(C)c1)[C@@H]1CNCCO1` [Example 55, (2S)-2-[(1S)-(2-Methoxy-4-methylphenoxy)-m-tolyl-methyl] morpholine hydrochloride]: the Ki in test [1] came out at 109 nM; in test [2], 20.4 nM.

On to `COc1cc(F)ccc1O[C@@H](c1cccc(C)c1)[C@@H]1CNCCO1` [Example 57, (2S)-2-[(1S)-(4-Fluoro-2-methoxyphenoxy)-m-tolyl-methyl] morpholine hydrochloride], for which the Ki in test [1] was 544 nM; in test [2] it was 19.7 nM.

Take `COc1ccc(O[C@@H](c2cccc(C)c2)[C@@H]2CNCCO2)c(OC)c1` [Example 58, (2S)-2-[(1S)-(2,4-Dimethoxyphenoxy)-m-tolyl-methyl] morpholine hydrochloride]: the Ki in test [1] came out at 474 nM; in test [2] it was 42.9 nM.

With `Cc1cccc([C@H](Oc2cc(F)ccc2Cl)[C@@H]2CNCCO2)c1` [Example 59, (2S)-2-[(1S)-(2-Chloro-5-fluorophenoxy)-m-tolyl-methyl] morpholine hydrochloride], the inhibition constant (Ki) in test [1] came out at 524 nM; in test [2], 10.3 nM.

As for `Fc1cccc([C@H](Oc2c(F)cccc2Cl)[C@@H]2CNCCO2)c1` [Example 60, (2S)-2-[(1S)-(2-Chloro-6-fluorophenoxy) (3-fluorophenyl)methyl] morpholine hydrochloride], the Ki is 314 nM in test [1] and 1.91 nM in test [2].

In the case of `COc1cccc([C@H](Oc2ccc(Cl)cc2OC)[C@@H]2CNCCO2)c1` [Example 61, (2S)-2-[(1S)-(4-Chloro-2-methoxyphenoxy) (3-methoxyphenyl)methyl] morpholine hydrochloride], the Ki in test [1] amounted to 38 nM; in test [2], 20.1 nM.

For `COc1cccc([C@H](Oc2ccc(F)cc2Cl)[C@@H]2CNCCO2)c1` [Example 63, (2S)-2-[(1S)-(2-Chloro-4-fluorophenoxy)-(3-methoxyphenyl)methyl] morpholine hydrochloride], the inhibition constant (Ki) came out at 124 nM in test [1] and 3.21 nM in test [2].

Turning to `Fc1cccc([C@H](Oc2ccc(F)cc2F)[C@@H]2CNCCO2)c1` [Example 64, (2S)-2-[(1S)-(2,4-Difluorophenoxy) (3-fluoro-phenyl)methyl] morpholine hydrochloride], the Ki in test [1] amounted to 511 nM; in test [2], 13.8 nM.

`Fc1cccc([C@H](Oc2c(F)cc(F)cc2F)[C@@H]2CNCCO2)c1` [Example 65, (2S)-2-[(1S)-(3-Fluorophenyl) (2,4,6-trifluorophenoxy)methyl] morpholine hydrochloride]: the inhibition constant (Ki) in test [1] came to 511 nM; in test [2], 15.7 nM.

Regarding `CCCc1ccccc1O[C@@H](c1cccc(F)c1)[C@@H]1CNCCO1` [Example 66, (2S)-2-[(1S)-(3-Fluorophenyl) (2-propylphenoxy)methyl] morpholine hydrochloride], the inhibitory constant (Ki) turned out to be 1040 nM in test [1] and 19.9 nM in test [2].

As to `Fc1cccc([C@H](Oc2ccc(C(F)(F)F)cc2)[C@@H]2CNCCO2)c1` [Example 67, (2S)-2-[(1S)-(3-Fluorophenyl) (4-trifluoromethyl phenoxy)methyl] morpholine hydrochloride], the Ki in test [1] was 35.5 nM; in test [2] it was 390 nM.

On to `COc1cccc([C@H](Oc2ccc(F)cc2OC)[C@@H]2CNCCO2)c1` [Example 68, (2S)-2-[(1S)-(4-Fluoro-2-methoxyphenoxy) (3-methoxyphenyl)methyl] morpholine hydrochloride], for which the Ki in test [1] stood at 408 nM; in test [2], 20.1 nM.

`COc1cccc([C@H](Oc2cc(F)ccc2Cl)[C@@H]2CNCCO2)c1` [Example 69, (2S)-2-[(1S)-(2-Chloro-5-fluorophenoxy) (3-methoxyphenyl)methyl] morpholine hydrochloride]: the Ki in test [1] amounted to 687 nM; in test [2] it was 7.92 nM.

With `COc1cc(F)ccc1O[C@@H](c1ccc(Cl)cc1)[C@@H]1CNCCO1` [Example 71, (2S)-2-[(1S)-(4-Chloro-phenyl) (4-fluoro-2-methoxyphenoxy)methyl] morpholine hydrochloride], the Ki in test [1] stood at 77.7 nM; in test [2], 28.6 nM.

For `Fc1ccc(O[C@@H](c2ccc(Cl)cc2)[C@@H]2CNCCO2)c(Cl)c1` [Example 72, (2S)-2-[(1S)-(2-Chloro-4-fluorophenoxy) (4-chlorophenyl)methyl] morpholine hydrochloride], the values for the Ki in test [1] and in test [2] were 78.9 nM and 91.6 nM, respectively.

As for `COc1cc(Cl)ccc1O[C@@H](c1ccc(Cl)cc1)[C@@H]1CNCCO1` [Example 73, (2S)-2-[(1S)-(4-Chloro-2-methoxyphenoxy) (4-chlorophenyl)methyl] morpholine hydrochloride], the values for the inhibition constant Ki in test [1] and in test [2] were 14 nM and 75.7 nM, respectively.

On to `Fc1ccc([C@H](Oc2ccc(F)cc2Cl)[C@@H]2CNCCO2)cc1` [Example 74, (2S)-2-[(1S)-(2-Chloro-4-fluorophenoxy) (4-fluorophenyl)methyl] morpholine hydrochloride], for which the Ki is 138 nM in test [1] and 18.6 nM in test [2].

Consider `Clc1cccc(O[C@@H](c2ccccc2)[C@@H]2CNCCO2)c1Cl` [Example 81, (2S)-2-[(1S)-(2,3-Dichlorophenoxy)phenylmethyl] morpholine fumarate], for which the values for the Ki in test [1] and in test [2] were 26.4 nM and 7.1 nM, respectively.

Take `Cc1c(Cl)cccc1O[C@@H](c1ccccc1)[C@@H]1CNCCO1` [Example 82, (2S)-2-[(1S)-(3-Chloro-2-methylphenoxy)phenylmethyl] morpholine fumarate]: the values for the Ki in test [1] and in test [2] were 12.1 nM and 11.9 nM, respectively.
